The source of these data is article PMC10580953, “In vitro and intracellular activities of novel thiopeptide derivatives against macrolide-susceptible and macrolide-resistant Mycobacterium avium complex” (Microbiology Spectrum, 2023).

Values after ≈ are worked out from the molar mass of the structure shown. “Also recorded” adds a separate entry of the source.

The subject of one data set is M. avium. Briefly: MIC by resazurin microtiter assay (REMA), M. avium strains.
A short description of data set [1]: Aqueous kinetic solubility. In kind it is physicochemical. Conditions: for solubility at 2 h: aqueous buffer, kinetic from dmso stock, free form, deionized water pH 7.4, 1% DMSO. How it is done:
The aqueous kinetic solubility was determined by preparing a 20 mM DMSO stock solution of test compounds and incubating an aliquot of this solution in deionized water at pH 7.4 to set a 1% final concentration of DMSO. In the case of HCl salt compounds, 1–2 mg of compound was weighed and dissolved in deionized water to yield an approximately 10 mg/mL solution. After initial mixing using brief vortexing and sonication, samples were equilibrated by shaking for 2 h at room temperature. Suspensions or solutions with visible particles were filtered through 0.22 µm PVDF membrane filters. The dissolved drug concentration was analyzed using UPLC-MS. To determine the solubility of the HCl salt, 1 mg of compound was weighed into a 2 mL glass tube, and a fixed volume of deionized water was added to yield an approximately 10 mg/mL solution. The solution was equilibrated by shaking for 24 h at room temperature. After equilibration, the vials were visually examined. If a clear solution was obtained, solubility was reported as >mg/mL.

The subject of data set [2] is MAC in murine BMDMs. Briefly: Intracellular anti-MAC activity in infected BMDMs, summary statements for MAC. In kind it is cell-based, Mycobacterium avium complex. Conditions: for intracellular growth of MAC in BMDMs: MAC-infected BMDMs, 72 h (Fig. 2). The protocol: (§1) BMDMs were obtained from 6-week-old female BALB/c mice. Bone marrow cells were differentiated into BMDMs using Dulbecco’s Modified Eagle Medium (Biowest) supplemented with 10% fetal bovine serum (Biowest) and 10% L929 cell supernatant as previously described ([58]).
(§2) BMDMs were seeded at 4 × 10^5 cells/mL in a 48-well plate and incubated overnight at 37°C. MAC strains were infected at a multiplicity of infection of 3 for 4 h and washed with DPBS twice. The cells were then cultured in the absence or presence of drugs in triplicate wells for 72 h. After incubation, the cells were lysed with 0.05% Triton X-100, and the cell lysates serially diluted with DPBS were spotted on 7H10 agar plates supplemented with OADC to count the number of viable bacteria. Colonies were enumerated after 7 d of incubation at 37°C, and the values are reported as the mean CFU ± standard deviation (SD) per mL. All experiments were repeated at least three times independently.

In data set [3] the test system is M. intracellulare in murine BMDMs. Briefly: Intracellular anti-MAC activity in infected BMDMs, M. intracellulare. In kind it is cell-based, Mycobacterium intracellulare. Conditions: M. intracellulare ATCC 13950, 10 µg/mL, 72 hr. The protocol:
as §1, §2

The next data set relates to M. avium in murine BMDMs. Briefly: Intracellular anti-MAC activity in infected BMDMs, M. avium. Type of data set: cell-based, Mycobacterium avium. Conditions: M. avium ATCC 700898, 10 µg/mL, 72 hr. How it is done: as §1, §2
A further data set deals with MAC strains. Briefly: MIC by REMA, summary statements for MAC strains. In kind it is cell-based, Mycobacterium avium complex. Conditions: Mycobacterium avium; range over tested MAC strains (Table 2); read-out: in vitro MIC for the tested MAC strains.
For another data set, the system named is BMDMs. Briefly: Cell cytotoxicity test (trypan blue cell counting). In kind it is cell-based, BALB/c mice. Conditions: 20 µg/mL, overnight incubation (Fig. S4). How it is done: as §1
Cell viability was evaluated using trypan blue cell counting. BMDMs were plated at 4 × 10^5 cells/mL along with antibiotics in a 48-well cell culture plate. The antibiotics were serially diluted twofold from the highest concentration of 20 μg/mL to 1.25 μg/mL. After overnight incubation at 37°C with 5% CO2, BMDMs were isolated, and viable cells were counted using trypan blue dye exclusion. Cell viability was calculated as a percentage compared to the control. All experiments were repeated at least three times independently.

A further data set has as its system M. intracellulare. Briefly: MIC by resazurin microtiter assay (REMA), M. intracellulare strains.
For data set [4], the system named is MAC in murine BMDMs. Also noted: method as in PMID 33519787. Conditions: cited from earlier work.
Data set [5] has as its system macrolide-resistant M. avium clinical isolates in BMDMs. Briefly: Intracellular activity in BMDMs, macrolide-resistant M. avium clinical isolates. Type of data set: cell-based, Mycobacterium avium. The conditions noted are these: five macrolide-resistant M. avium clinical isolates, 10 µg/mL, 72 h (Fig. 5). The protocol: as §1, §2
Another data set deals with M. avium ATCC 700898. Conditions: synergism FICI ≤0.5, additive 0.5 < FICI ≤ 1, indifferent 1 < FICI ≤ 4, antagonistic FICI >4. The protocol: (§3) To evaluate the efficacy of the combination of agent A and agent B, a fractional inhibitory concentration (FIC) index was calculated as follows: FICI = (FIC of agent A) + (FIC of agent B) = (MIC of agent A in combination/MIC of agent A alone) + (MIC of agent B in combination/MIC of agent B alone). Synergism is defined as FICI ≤0.5, additive as 0.5 < FICI ≤ 1, indifferent as 1 < FICI ≤ 4, and antagonistic as FICI >4. The cultured bacteria were diluted to a 0.005 OD600 in 7H9 broth containing 5% OADC, and the antimicrobial agents were prepared by serial dilutions to a final concentration of 0.03–4 μg/mL. For the evaluation of inhibitory concentrations, the plates were incubated at 37°C for 5–7 d. Then, MIC values were assessed by REMA, and the FICI was calculated.

For data set [6], the system named is M. intracellulare ATCC 13950. Conditions: synergism FICI ≤0.5, additive 0.5 < FICI ≤ 1, indifferent 1 < FICI ≤ 4, antagonistic FICI >4. The protocol: as §3
The test system of data set [7] is macrolide-resistant M. intracellulare. Briefly: MIC by REMA, macrolide-resistant M. intracellulare strains. The conditions noted are these: Mycobacterium intracellulare.
Description: (§4) Reference strains were purchased from the American Type Culture Collection (ATCC; Manassas, VA, USA). All clinical MAC isolates, including macrolide-susceptible and macrolide-resistant strains, were kindly provided by Samsung Medical Center (SMC; Seoul, South Korea) and Asan Medical Center (AMC; Seoul, South Korea). All strains were cultivated in Middlebrook 7H9 liquid broth (Difco Laboratories, Detroit, MI) supplemented with 10% oleic acid-albumin-dextrose-catalase (OADC) or plated on Middlebrook 7H10 agar (Difco Laboratories) with 10% OADC enrichment at 37°C.
(§5) The MICs of all the reagents were determined using the REMA method based on guidelines by the Clinical and Laboratory Standards Institute ([57]). […] The cultures were diluted to an OD600 = 0.001 in 7H9 broth with 5% OADC. […] Two controls (broth only and bacteria only) were incubated to check for other contamination (broth only) and the growth of tested bacteria (bacteria only).
(§6) PCR amplification and sequencing for CLR were based on 23S rRNA. The primers and PCR conditions were as reported previously ([59]). PCR was carried out in a final volume of 20 µL and contained EzPCR Basic 5 × premix (ELPIS, Daejeon, South Korea), 13 µL of sterile dH2O, 1 µL of each forward and reverse primer, and 1 µL of template DNA. The PCR products were run on 1% agarose gels and purified using a NEXprep Gel/PCR Purification Mini Kit (Geneslabs, Gyeonggi, South Korea) for DNA cleanup. Purified PCR products were sequenced by Sanger sequencing in Bionics (Seoul, South Korea) with their gene-specific forward and reverse primers. Sequences obtained from Bionics were subjected to BLAST searches to compare nucleotide sequences with reference strains.
For data set [8], the system named is macrolide-resistant M. avium. Briefly: MIC by REMA, macrolide-resistant M. avium strains.
Description: as §4, §5, §6
[9] abbreviates: Mycobacterium avium, ATCC700898.
The mark [10] stands for this setting: Mycobacterium intracellulare, ATCC13950, M. intracellulare (ATCC 13950), reference strain.
[11] abbreviates: Mycobacterium intracellulare, M. intracellulare (SMC#8).
[12] abbreviates: Mycobacterium intracellulare, M. intracellulare (SMC#12).
Where [13] appears, read: Mycobacterium intracellulare, M. intracellulare (SMC#699).

For `C/C=C(\NC(=O)c1csc(-c2csc(-c3ccc4c(n3)-c3csc(n3)[C@H]([C@@H](C)O)NC(=O)c3csc(n3)[C@H](C(C)C)NC(=O)c3csc(n3)/C(=C/C)NC(=O)[C@H]([C@@H](C)O)NC(=O)c3csc-4n3)n2)n1)C(=O)NCC(C)=O` [MP2, micrococcin P2, reference compound], the MIC (in general, the lowest concentration found to suppress growth) is 0.125 µg/mL (≈ 0.109 µM) with M. avium (M. avium (SMC#6)); 0.125 µg/mL (≈ 0.109 µM) against M. avium (M. avium (SMC#7)); 0.125 µg/mL (≈ 0.109 µM) against M. avium (M. avium (SMC#1637)); 0.125 µg/mL (≈ 0.109 µM) in the data set with M. avium (Mycobacterium avium); 0.125 µg/mL (≈ 0.109 µM) against M. avium (setting [9]); 0.125 to 0.5 µg/mL (≈ 0.109 to 0.438 µM) in the data set with MAC strains. The MIC with M. intracellulare (setting [10]) was found to be 0.125 µg/mL (≈ 0.109 µM); in the data set on M. intracellulare (Mycobacterium intracellulare, M. intracellulare (SMC#7)) it was 0.125 µg/mL (≈ 0.109 µM); against M. intracellulare (setting [11]) it was 0.125 µg/mL (≈ 0.109 µM); in the data set on M. intracellulare (Mycobacterium intracellulare, M. intracellulare (SMC#9)), 0.125 µg/mL (≈ 0.109 µM); with M. intracellulare (setting [12]) it was 0.125 µg/mL (≈ 0.109 µM); against M. intracellulare (setting [13]) it was 0.125 µg/mL (≈ 0.109 µM). The minimum inhibitory concentration (MIC) is 0.125 µg/mL (≈ 0.109 µM) with M. intracellulare (Mycobacterium intracellulare, M. intracellulare (SMC#831)) and 0.125 µg/mL (≈ 0.109 µM) in the data set on M. intracellulare (Mycobacterium intracellulare, M. intracellulare (SMC#2087)). The solubility (commonly the dissolved amount per volume that the medium holds) at 2 h in data set [1] came to 0.07 µg/mL (≈ 0.0613 µM). The “intracellular growth of MAC in BMDMs” value in the data set on MAC in murine BMDMs [2] was “completely abrogated”. The “intracellular activity (CFU) in BMDMs” value (in data set [3]; in the data set on M. avium in murine BMDMs) was “ineffective” in each case. Besides, the Cell viability result in the data set with BMDMs is “decreased”.

As for `CO[C@H]1/C=C/O[C@@]2(C)Oc3c(C)c(O)c4c(O)c(c(/C=N/N5CCN(C)CC5)c(O)c4c3C2=O)NC(=O)/C(C)=C\C=C\[C@H](C)[C@H](O)[C@@H](C)[C@@H](O)[C@@H](C)[C@H](OC(C)=O)[C@@H]1C` [rifampicin], the “intracellular activity against MAC” value in the data set on MAC in murine BMDMs [4] was “little intracellular activity”.

With `C/C=C1\NC(=O)[C@H]([C@@H](C)O)NC(=O)c2csc(n2)-c2ccc(-c3nc(-c4nc(C(=O)NC5(C(=O)NCCCN6CCOCC6)CC5)cs4)cs3)nc2-c2csc(n2)[C@H]([C@@H](C)O)NC(=O)c2csc(n2)[C@H](C(C)C)NC(=O)c2csc1n2` [AJ-037], the “intracellular bacterial growth in BMDMs” value in data set [5] is given as “notably inhibited intracellular bacterial growth”. For the same molecule, the MIC came to 0.25 µg/mL (≈ 0.206 µM) with M. avium (M. avium (SMC#7)); 0.25 µg/mL (≈ 0.206 µM) in the data set on M. avium (Mycobacterium avium); 0.25 µg/mL (≈ 0.206 µM) in the data set with M. avium (setting [9]); 0.125 µg/mL (≈ 0.103 µM) with M. avium (Mycobacterium avium, M. avium (SMC#6)); 0.125 µg/mL (≈ 0.103 µM) with M. avium (Mycobacterium avium, M. avium (SMC#1637)); 0.125 µg/mL (≈ 0.103 µM) in data set [7] (M. intracellulare (AMC#24), 23S rRNA A2058/A2059 G/A). The MIC came to 0.125 µg/mL (≈ 0.103 µM) in data set [7] (M. intracellulare (SMC#104), 23S rRNA A2058/A2059 G/A); 0.125 µg/mL (≈ 0.103 µM) in [7] (M. intracellulare (SMC#414), 23S rRNA A2058/A2059 A/G); 0.125 µg/mL (≈ 0.103 µM) in [8] (M. avium (SMC#1216), 23S rRNA A2058/A2059 C/A); 0.125 µg/mL (≈ 0.103 µM) in data set [8] (Mycobacterium avium); 0.5 µg/mL (≈ 0.412 µM) in data set [8] (Mycobacterium avium, M. avium (SMC#420), 23S rRNA A2058/A2059 C/A); 1 µg/mL (≈ 0.824 µM) in data set [8] (Mycobacterium avium, M. avium (SMC#422), 23S rRNA A2058/A2059 A/G). Further, the MIC came out at 0.5 µg/mL (≈ 0.412 µM) in data set [8] (Mycobacterium avium, M. avium (SMC#1213), 23S rRNA A2058/A2059 T/A); 0.125 µg/mL (≈ 0.103 µM) with M. intracellulare (M. intracellulare (SMC#9)); 0.125 µg/mL (≈ 0.103 µM) with M. intracellulare (M. intracellulare (SMC#831)); 0.125 µg/mL (≈ 0.103 µM) against M. intracellulare (M. intracellulare (SMC#2087)); 0.125 µg/mL (≈ 0.103 µM) in the data set with M. intracellulare (Mycobacterium intracellulare); 0.25 µg/mL (≈ 0.206 µM) against M. intracellulare (setting [10]). Besides, the MIC in the data set with M. intracellulare (setting [11]), in the data set on M. intracellulare (setting [12]) and against M. intracellulare (setting [13]) was 0.25 µg/mL (≈ 0.206 µM) throughout. The molecule further returned a solubility at 2 h in [1] of 103 µg/mL (≈ 84.9 µM). The “Fold increase, HCl salt” value in [1] (solubility of HCl salt compared to MP2) is “×71,428 fold”. Moreover, the “Fold increase, Free form” value in data set [1] (solubility of free form compared to MP2) is “×1,471 fold”. Also, in data set [1] (thermodynamic from solid, HCl salt in deionized water), the solubility is 5000 µg/mL. Further, the “drug-drug interaction with CLR” value in the data set on M. avium ATCC 700898 is given as “strongest synergistic effect; also recorded: Synergistic effects”; in data set [6], “relatively weak but synergistic effect; also recorded: Synergistic effects”. In the data set on MAC in murine BMDMs [2], the “intracellular growth of MAC in BMDMs” value is given as “remarkably inhibited the intracellular growth of MAC to a similar degree as CLR; also recorded: significantly reduced the number of MAC CFUs inside macrophages”. Further, the “intracellular activity in BMDMs infected with macrolide-resistant MAC clinical isolates” value in the data set on MAC in murine BMDMs [2] (macrolide-resistant MAC, 10 µg/mL, 72 h (Fig. 5 and 6)) is given as “significant decrease in CFUs”. For the same molecule, in the data set on BMDMs, the Cell viability result is given as “decreased”.
